Values quoted from earlier work, collected in patent US20060069238A1, “Synthetic glyco-lipo-peptides as vaccines” (Biomira, Inc., priority 2002, published 2006).

Conditions: n-octanol:water, experimental database of LogKow; cited from earlier work

**Q.** Which “LogP Exp” value does the source give for `Cc1c[nH]c2ccccc12` [3-methyl indole] here?
**A.** Its value is 2.60.
